Measured values from patent US20050143336A1 (priority 2003, published 2005).

Key:
p44/42 MAPK = conditions: MRC-9 cells, 10, 30 μM prior to FUS1-nanoparticles
Protocol: In vitro experiments. To determine the effect of FUS1-nanoparticles on the activation of signaling molecules associated with inflammation, MRC-9 fibroblast cells were seeded in six-well plates (5×10^5 cells/well) and incubated overnight at 37° C. and 5% CO2. […] Two-three hours after treatment, cells were transfected with FUS1-nanoparticles (2.5 μg DNA) in 0.2% serum medium. Cells were harvested at different time-points (2 h, 4 h, 15 h) after transfection, washed, and cell lysates prepared as previously described (Ramesh et al., 2001a). Untransfected cells treated with PBS served as control in these experiments. Cell lysates were subjected to western blotting analysis and probed with various antibodies as previously described (Ramesh et al., 2001b; Ito et al., 2003). In all the experiments, β-actin was detected using anti-β-actin antibody (Sigma Chemicals, St. Louis, Mo.) as a measure of internal loading control.

C3H mice = experiment: Survival of mice given p38MAPK or pJNK inhibitor before FUS1-nanoparticles; assay type: in vivo
Protocol: The amount of FUS1 plasmid DNA delivered was 100 μg. Animals were injected intravenously with FUS1-nanoparticles and animal survival monitored for 25 days.

[1] = inhibitor 15 mg/kg intraperitoneally 24 h and 3 h prior to FUS1-nanoparticles (100 μg DNA) i.v., monitored 25 days

Row | Structure (SMILES) | p44/42 MAPK expression and downstream substrates (p44/42 MAPK) | survival (C3H mice; [1]) | survival (C3H mice; two i.p. doses at 24 h and 3 h before complex)
1 | N#CC(=C(/N)Sc1ccccc1N)/C(C#N)=C(\N)Sc1ccccc1N [U0126] | significant inhibition |  | 
2 | C[S+]([O-])c1ccc(-c2nc(-c3ccncc3)c(-c3ccc(F)cc3)[nH]2)cc1 (stereo not shown) [SB 203580] |  | 100% | Prolonged survival
3 | O=C1c2ccccc2-c2n[nH]c3cccc1c23 [pJNK inhibitor] |  | 33% | 
